Results from the supplement of paper PMC5412046.
Structures can show the parent of a compound that is named as a salt.

system: SB.msgc-1; test: AC50 for growth inhibition (viability) (log10 M); higher = less potent; conditions: SB.msgc-1 (sporadic gastric cancer)
Procedure, shortened: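 Gastric cancer cells derived from patients with hereditary or sporadic disease were seeded at 500 cells in 5 μL medium per 1536 well. A pintool delivered 23 nL of compound in DMSO, as 11 threefold dilutions from a final 46 μM. After 48 h, CellTiter-Glo was added for 30 min at room temperature and luminescence was read on a ViewLux. The log half-maximal activity concentration was taken from a four-parameter fit of viability normalised to DMSO, using only high-quality curve classes.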

Row | Compound | AC50 for growth inhibition (log10 M)
1 | C[C@@H](Oc1cc(-n2cnc3ccc(CN4CCN(C)CC4)cc32)sc1C(N)=O)c1ccccc1C(F)(F)F | -7.13
2 | CC(C)[C@H]1C(=O)N[C@H](CO)Cc2c[nH]c3cccc(c23)N1C [(-)-Indolactam V] | -6.43
3 | OCCC#Cc1nc(-c2ccc(F)cc2)c(-c2ccncc2)n1CCCc1ccccc1 | -4.68
4 | CCc1cc(/C(C)=N/OCc2ccc(C3CCCCC3)c(C(F)(F)F)c2)ccc1CN1CC(C(=O)O)C1 [BAF-312] | -4.73
5 | FC1=CC=C(SC/2=N/N3\C=N/C(=O)/C(=C3/C=C2)C4=C(Cl)C=CC=C4Cl)C(=C1)F [VX-745] | -4.73
6 | CNC(=O)c1ccccc1Sc1ccc2c(/C=C/c3ccccn3)n[nH]c2c1 [Axitinib] | -4.68
7 | O=C(Nc1ccccc1)Nc1ccc(-c2ccc(C(=O)[C@@H]3CCC[C@H]3C(=O)O)cc2)cc1 | -4.63
8 | CCCCCNC(=O)N1CCC(CN(Cc2ccc(Cl)cc2)Cc2ccc([N+](=O)[O-])s2)C1 (stereo unspecified) [SR9011] | -4.73
9 | CCC[S+]([O-])c1ccc2[nH]c(NC(=O)OC)nc2c1 (stereo unspecified) [Albendazole Oxide] | -4.68
10 | Cc1nc(NC(=O)N2CCC[C@H]2C(N)=O)sc1-c1ccnc(C(C)(C)C(F)(F)F)c1 [BYL-719] | -4.88
11 | COc1cc(-c2nn(C3CCC(N4CCN(C(C)=O)CC4)CC3)c3ncnc(N)c23)ccc1NC(=O)c1cc2ccccc2n1C (stereo unspecified) | -5.28
12 | CCC[S+](=O)([O-])Nc1ccc(F)c(C(=O)c2c[nH]c3ncc(-c4ccc(Cl)cc4)cc23)c1F [Vemurafenib] | -4.78
13 | CCCNC(=O)Nc1ccc(Oc2ncnc3cc(OC)c(OC)cc23)cc1Cl [KRN-633] | -4.68
14 | Cc1cc2c(cc1C1(c3ccc(C(=O)O)cn3)CC1)C(C)(C)CCC2(C)C | -4.73
15 | CC1COC2(CCN(CC2)C/3=N/C(=O)C4=CC(=CC(=C4S3)[N+]([O-])=O)C(F)(F)F)O1 (stereo unspecified) | -4.78
16 | CC(C)c1ccc(Cn2ccc3c4c(N)nc(NC5CC5)nc4ccc32)cc1 | -5.78
17 | CS[C@H]1SC[C@@H]2C(=O)N(C)[C@H](C(C)C)C(=O)OC[C@H](NC(=O)c3cnc4ccccc4n3)C(=O)N[C@H](C)C(=O)N(C)[C@H]1C(=O)N(C)[C@H](C(C)C)C(=O)OC[C@H](NC(=O)c1cnc3ccccc3n1)C(=O)N[C@H](C)C(=O)N2C [Echinomycin] | -8.33
18 | CC[C@]1(O)C[C@@H]2CN(CCc3c([nH]c4ccccc34)[C@@](C(=O)OC)(c3cc4c(cc3OC)N(C)[C@H]3[C@@](O)(C(N)=O)[C@H](O)[C@]5(CC)C=CCN6CC[C@]43[C@@H]65)C2)C1 [Vindesine sulfate] | -8.68
19 | CCn1c(=O)c2c(nc(/C=C/c3ccc(OC)c(OC)c3)n2C)n(CC)c1=O [Istradefylline] | -4.73
20 | COc1cc([C@H]2Oc3cc([C@H]4Oc5cc(O)cc(O)c5C(=O)[C@@H]4O)ccc3O[C@@H]2CO)ccc1O [Silybin] | -4.78
21 | O=C(CCCN1CCN(c2ccc(F)cc2)CC1)NC1c2ccccc2CSc2ccccc21 (stereo unspecified) [Monatepil] | -5.23
22 | NC(=O)[C@@H](CCC(F)(F)F)N(Cc1ccc(-c2ncon2)cc1F)[S+](=O)([O-])c1ccc(Cl)cc1 [Avagacestat] | -4.83

Row | Compound | AC50 for growth inhibition (log10 M)
23 | CC[C@H](/C=C/[C@@H](C)[C@H]1CC[C@H]2[C@@H]3CC=C4C[C@@H](O)CC[C@]4(C)[C@H]3CC[C@]12C)C(C)C [Stigmasterol] | -5.19
24 | Nc1nc(N)c2nc(CNc3ccc(C(=O)NC(CCC(=O)O)C(=O)O)cc3)cnc2n1 (stereo unspecified) [Aminopterin] | -7.63
25 | Cc1cccc(C)c1OCC(=O)N[C@@H](Cc1ccccc1)[C@@H](O)C[C@H](Cc1ccccc1)NC(=O)[C@H](C(C)C)N1CCCNC1=O [Lopinavir] | -4.73
26 | CN(C)C(=O)C(CCN1CCC(O)(c2ccc(Cl)cc2)CC1)(c1ccccc1)c1ccccc1 [Loperamide hydrochloride] | -4.78
27 | O=C(O)c1ccc(-c2c[nH]c3ncc(-c4ccccc4)cc23)cc1C1CCCC1 | -6.28
28 | N=C(N)NC(=N)N1CCOCC1 [Moroxydine] | -4.78
29 | O=[S+]([O-])(/N=C/c1c(O)ccc2ccccc12)c1cccs1 | -5.03
30 | COC(=O)CCC1=C(C)C2=CC3=NC(=CC4=C(C)C(=C([NH]4)C=C\5N=C(C=C1[NH]2)\C(=C5C)CCC(O)=O)C=C)\C6=C\C=C(/[C@@H](C(=O)OC)[C@@]36C)C(=O)OC [Verteporfin] | -7.03
31 | NCC1CCC(C(=O)O)CC1 (stereo unspecified) [Tranexamic acid] | -5.18
32 | Nc1nc(N)c2nc(-c3cccc(O)c3)c(-c3cccc(O)c3)nc2n1 | -5.18
33 | CC[C@@]1(O)C(=O)OC\C2=C1\C=C3/N(CC4=CC5=C(C=CC(=C5CN(C)C)O)N=C34)C2=O [Topotecan hydrochloride] | -6.73
34 | COCC(=O)NC/C=C/c1ccc2ncnc(Nc3ccc(Oc4ccc(C)nc4)c(C)c3)c2c1 | -6.58
35 | COc1cccc(OC)c1-c1cc(C(=O)NC2(C(=O)O)C3CC4CC(C3)CC2C4)nn1-c1ccnc2cc(Cl)ccc12 (stereo unspecified) [Meclinertant] | -4.68
36 | OCCCNc1cc(-c2ccnc(Nc3cccc(Cl)c3)n2)ccn1 | -6.68
37 | CC(=O)NC(C)c1ccc(Oc2ccc(OC(C)C)cc2)cc1 (stereo unspecified) [ACC1 BMS] | -4.73
38 | N#CC[C@H](C1CCCC1)n1cc(-c2ncnc3[nH]ccc23)cn1 [Ruxolitinib] | -4.73
39 | CCOP(=O)(OCC)C(C)NC(=O)N(CCCl)N=O (stereo unspecified) [Fotemustine] | -5.13
40 | Cc1cn([C@H]2C=C[C@@H](CO)O2)c(=O)[nH]c1=O [Stavudine] | -4.37
41 | Cc1c(CN2CCN([S+](C)(=O)[O-])CC2)sc2c(N3CCOCC3)nc(-c3cnc(N)nc3)nc12 [GNE-477] | -7.68
42 | CCCCCCCCCCCC(CC1OC(=O)C1CCCCCC)OC(=O)C(CC(C)C)NC=O (stereo unspecified) [Orlistat] | -4.78
43 | O=C(Nc1cccnc1)N1CCC(Cc2cccc(Oc3ccc(C(F)(F)F)cn3)c2)CC1 [PF-3845] | -4.78
44 | C[C@@H]1CC[C@H]2[C@@H](C)C(=O)O[C@@H]3O[C@@]4(C)CC[C@@H]1[C@]32OO4 [Artemisinin] | -6.93

Row | Compound | AC50 for growth inhibition (log10 M)
45 | CN(C)CCN(C)C(=O)c1ccc(NC(=O)Nc2ccc(-c3nc(N4CCOCC4)c4ccn(CC(F)(F)F)c4n3)cc2)cc1 | -5.18
46 | CC1=C2N=C([NH]C2=CC(=C1)N3CCOCC3)\C4=C(NC[C@@H](O)C5=CC=CC(=C5)Cl)\C=C/NC4=O | -5.78
47 | OC1=C(Cl)C=C(N\C2=C(\C(=O)NC2=O)C3=C(C=CC=C3)[N+]([O-])=O)C=C1 | -4.88
48 | OC[C@H]1O[C@H](C[C@@H]1O)[N]2C=NC3=C2\N=C/NC[C@H]3O [Pentostatin] | -4.68
49 | COc1cc2c(cc1OC)CC(=O)N(CCCN(C)C[C@H]1Cc3cc(OC)c(OC)cc31)CC2.Cl [Ivabradine hydrochloride] | -4.58
50 | C/C(=C\C(=O)Nc1ccccc1C(=O)O)c1ccc2ccccc2c1 [BIBR 1532] | -4.78
51 | CC1(C)[C@H](C(=O)O)N2C(=O)C[C@H]2[S+]1(=O)[O-] [Sulbactam] | -4.83
52 | CC1COC2=C3N1\C=C(C(O)=O)/C(=O)C3=CC(=C2N4CCN(C)CC4)F (stereo unspecified) [Ofloxacin] | -4.73
53 | COCCOC(=O)C/1=C(C)/NC/2=C(C1C3=CC=CC(=C3)O)/C(=O)CC(C2)C4=C(OC)C=CC=C4 (stereo unspecified) [HPI-1] | -4.73
54 | Cc1ccc(C(=O)c2cc(O)c(O)c([N+](=O)[O-])c2)cc1 [Tolcapone] | -4.68
55 | CC(=O)Oc1cc2c(s1)CCN(C(C(=O)C1CC1)c1ccccc1F)C2.Cl (stereo unspecified) [Prasugrel] | -6.08
56 | O=C(CS(=O)Cc1ccco1)NC/C=C\COc1cc(CN2CCCCC2)ccn1 (stereo unspecified) [Lafutidine] | -5.08
57 | c1ccc(CNc2nc(N3CCOc4ccccc43)nc3c2CCCC3)cc1 | -4.68
58 | CC(C)OC1=CC=C2C(=C1)O\C=C(/C2=O)C3=CC=CC=C3 [Ipriflavone] | -4.78
59 | O=C(O)[C@@H](c1ccc(OCc2ccc3ccccc3n2)cc1)C1CCCC1 [Veliflapon] | -5.18
60 | CCCCCCCCCCCC/1=C(O)/C(=O)/C=C(O)\C1=O [Embelin] | -6.03
61 | CC1CCN(c2cc(N3CCN(C)CC3)ccc2NC(=O)c2cc(C#N)c[nH]2)CC1 [c-FMS inhibitor] | -4.68
62 | CN(CC#C)C/C1=C/C2=CC=CC=C2OC3=CC=CC=C13 [Omigapil] | -4.63
63 | CC[C@H]1/C=C\C=C/C[C@@H](C)[C@H](O)[C@@](C)(O)C(=O)[C@@H](C)[C@H](O)[C@@H](C)C(=O)[C@@H](C)[C@H](O)[C@@H](C)/C=C/C(=O)O[C@@H]2[C@H](C)[C@H](CC1)O[C@]1(CC[C@H](C)[C@H](C[C@@H](C)O)O1)[C@H]2C [Oligomycin A] | -8.83
64 | OC1=CC2=C(C=C1)C(=O)\C(=C(O2)\C3=CC(=C(O)C=C3)O)O [Fisetin] | -4.63
65 | CNC(=O)CN1CCC(Oc2cc3c(Nc4cccc(Cl)c4F)ncnc3cc2OC)CC1 [Sapitinib] | -7.98
66 | Fc1ccc(CNc2ncnc3ccc(F)cc23)cc1 [Spautin-1] | -5.48
